Measurements: US8722616B2, “Anti-HIV peptides and methods of use thereof” (priority 2009, dated 2014)
Non-standard residues stand in square brackets, D forms with d. Residues, ends and D or L forms follow the SMILES beside them. No end group written: not given here. Phg = N[C@H](C(=O)O)c1ccccc1

Experiments:
[1] = Cytotoxicity in the CPE assay (XTT, 50% reduction in cell viability); conditions: human
Procedure: (§1) Anti-HIV cytopathic effect inhibition assays were conducted as described (Buckheit et al. (1995) Antimicrob. Agents Chemother., 39:2718-2727). In brief, serially diluted peptides were added to a 96-well round bottom microtiter plate in triplicate. CEM-SS cells at a concentration of 2.5×10^3 cells per well and HIV-1IIIB at the appropriate pre-determined titer were sequentially added to the microtiter plate. The cultures were incubated at 5% CO2/37° C. for six days. Following the incubation, the microtiter plates were stained with XTT tetrazolium dye to evaluate the efficacy and toxicity of the test compound(s).
as §1, with “Cytopathic Effect (CPE) Inhibition Assay: The CPE assay was performed” for “Anti-HIV cytopathic effect inhibition assays were conducted”, “as previously” for “as”, “Briefly,” for “In brief,”, “compound was” for “peptides were”

HIV-1IIIB = experiment: microbe, parasite or virus in culture
Procedure: as §1
as §1, with “Cytopathic Effect (CPE) Inhibition Assay: The CPE assay was performed” for “Anti-HIV cytopathic effect inhibition assays were conducted”, “as previously” for “as”, “Briefly,” for “In brief,”, “compound was” for “peptides were”

CEM-SS cells = experiment: Cytotoxicity in the CPE assay (XTT, 50% reduction in cell viability)
Procedure: as §1
as §1, with “Cytopathic Effect (CPE) Inhibition Assay: The CPE assay was performed” for “Anti-HIV cytopathic effect inhibition assays were conducted”, “as previously” for “as”, “Briefly,” for “In brief,”, “compound was” for “peptides were”

[2] = Table 4, LL-37-derived peptides, CEM-SS cells
[3] = Table 1, CEM-SS cells, HIV-1IIIB, six days, 50% inhibition of virus replication
[4] = read-out: TC50, Table 1, CEM-SS cells, six days, 50% reduction in cell viability
[5] = read-out: TC50, Table 2, CEM-S cells
[6] = Table 2, sequence shuffling, CEM-S cells
[7] = read-out: TC50, Table 3, CEM-SS cells

CC[C@H](C)[C@H](NC(=O)[C@H](CCCCN)NC(=O)[C@H](CCCCN)NC(=O)[C@H](Cc1ccccc1)NC(=O)[C@H](CC(C)C)NC(=O)[C@H](CCCCN)NC(=O)[C@H](CCCCN)NC(=O)[C@@H](NC(=O)[C@H](CCCCN)NC(=O)[C@H](CCCCN)NC(=O)[C@H](CCCNC(=N)N)NC(=O)[C@@H](NC(=O)[C@H](CCCNC(=N)N)NC(=O)[C@H](CCCCN)NC(=O)[C@H](Cc1ccccc1)NC(=O)[C@H](CCCNC(=N)N)NC(=O)CN)c1ccccc1)c1ccccc1)C(=O)N[C@@H](CO)C(N)=O [BMAP-18X6X10, GRFKRXRKKXKKLFKKIS] (H-GRFKR[Phg]RKK[Phg]KKLFKKIS-NH2)
CC50 at 6 days ([1]; CEM-SS cells): 10.2 µM
EC50 (HIV-1IIIB; Table 5, BMAP-27-derived peptides, CEM-SS cells): 0.68 µM

CC[C@@H](C)[C@@H](NC(=O)[C@H](CCCNC(=N)N)NC(=O)[C@H](CCC(N)=O)NC(=O)[C@@H](NC(=O)[C@@H](NC(=O)[C@H](CCCNC(=N)N)NC(=O)[C@H](CCCCN)NC(=O)[C@H](Cc1ccccc1)NC(=O)CN)[C@@H](C)CC)C(C)C)C(=O)N[C@@H](CCCCN)C(=O)N[C@@H](CC(=O)O)C(=O)N[C@@H](Cc1ccccc1)C(=O)N[C@@H](CC(C)C)C(=O)N[C@@H](CCCNC(=N)N)C(=O)N[C@@H](CC(N)=O)C(=O)N[C@@H](CC(C)C)C(=O)N[C@H](C(N)=O)C(C)C [GF-17d1]
CC50 at 6 days ([1]; CEM-SS cells): 22.7 µM
EC50 (HIV-1IIIB; [2]): > 47.5 µM

CC[C@@H](C)[C@@H](NC(=O)[C@H](CCCNC(=N)N)NC(=O)[C@H](CCC(N)=O)NC(=O)[C@@H](NC(=O)[C@@H](NC(=O)[C@H](CCCNC(=N)N)NC(=O)[C@H](CCCCN)NC(=O)[C@H](Cc1ccccc1)NC(=O)CN)[C@@H](C)CC)C(C)C)C(=O)N[C@@H](CCCCN)C(=O)N[C@@H](CC(=O)O)C(=O)N[C@@H](Cc1ccccc1)C(=O)N[C@H](CC(C)C)C(=O)N[C@@H](CCCNC(=N)N)C(=O)N[C@@H](CC(N)=O)C(=O)N[C@@H](CC(C)C)C(=O)N[C@H](C(N)=O)C(C)C [GF-17d2]
CC50 at 6 days ([1]; CEM-SS cells): > 47.5 µM
EC50 (HIV-1IIIB; [2]): > 47.5 µM

CC[C@H](C)[C@H](NC(=O)CN)C(=O)N[C@@H](CCCCN)C(=O)N[C@@H](CCC(=O)O)C(=O)N[C@H](C(=O)N[C@@H](CCCCN)C(=O)N[C@@H](CCCNC(=N)N)C(=O)N[C@H](C(=O)N[C@H](C(=O)N[C@@H](CCC(N)=O)C(=O)N[C@@H](CCCNC(=N)N)C(=O)N[C@H](C(=O)N[C@@H](CCCCN)C(=O)N[C@@H](CC(=O)O)C(=O)N[C@@H](Cc1ccccc1)C(=O)N[C@@H](CC(C)C)C(=O)N[C@@H](CCCNC(=N)N)C(=O)N[C@@H](CC(N)=O)C(=O)N[C@@H](CC(C)C)C(=O)N[C@H](C(N)=O)C(C)C)[C@@H](C)CC)C(C)C)[C@@H](C)CC)c1ccccc1 [GI-20X17, GIKEXKRIVQRIKDFLRNLV] (H-GIKE[Phg]KRIVQRIKDFLRNLV-NH2)
CC50 at 6 days ([1]; CEM-SS cells): 7.3 µM
EC50 (HIV-1IIIB; [2]): > 40.6 µM

FFGKVLKLIRKIF-NH2 [Peptide D76]
CC50 at 6 days [1]: 6.78 µM
EC50 (HIV-1IIIB; [3]): 0.63 µM

FFHHIFRGIVHVGKTIHRLVTG [Piscidin 1, reference compound]
CC50 (CEM-SS cells; [4]): 6.9 µM

FKRIVQRIKDFLR-NH2 [FK-13]
CC50 at 6 days [1]: 10.4 µM
EC50 (HIV-1IIIB; >100 μg/ml defined as HIV inactive): 5.9 µg/mL
EC50 (HIV-1IIIB; [2]): 3.4 µM

FLFPLITSFLSKVL [Ranatuerin 9, reference compound]
CC50 [1]: 34.6 µM
EC50 (HIV-1IIIB; 1IIIB): 16.7 µM

FRPALIVRTKGTRL [Hyposin-5, reference compound]
CC50 [1]: > 61.4 µM
EC50 (HIV-1IIIB; 1IIIB): > 61.4 µM

GAWKNFWSSLRKGFYDGEAGRAIRR [Peptide D94, reference compound]
CC50 (CEM-SS cells; [4]): > 34.1 µM
EC50 (HIV-1IIIB; [3]): > 34.1 µM

GFGKAFHSVSNFAKKHKTA-NH2 [Styelin A, reference compound] [listing 1 of 2 here]
EC50 (HIV-1IIIB; [3]): > 48.5 µM

GFGKAFHSVSNFAKKHKTA-NH2 [Styelin A, reference compound] [listing 2 of 2 here]
CC50 (CEM-SS cells; [4]): > 48.5 µM

GFLDIIEKIAKSW [Peptide B7]
CC50 (CEM-SS cells; [5]): > 65.8 µM
EC50 (HIV-1IIIB; [6]): 10.5 µM

GFLSILKKVLPKVMAHMK-NH2 [Melectin, reference compound]
CC50 (CEM-SS cells; [4]): 7.75 µM

GFNEIVQDIEDFLQNLV-NH2 [GF17-]
CC50 [1]: > 25.1 µM
EC50 (HIV-1IIIB; 1IIIB): > 25.1 µM

GIFDKLAKEISIW [Peptide B5]
CC50 (CEM-SS cells; [5]): > 65.8 µM
EC50 (HIV-1IIIB; [6]): > 65.8 µM

GIIDIAKKLFESW [Peptide B3]
CC50 (CEM-SS cells): > 65.8 µM
EC50 (HIV-1IIIB; 1IIIB): 20.1 µM

GIKEFKREFQRIKDFLRNLV-NH2 [GI-20EF]
CC50 at 6 days [1]: 9.9 µM
EC50 (HIV-1IIIB; [2]): 1.6 µM

GIKEFKRIVQRIKDFLRNLV-NH2 [GI-20]
CC50 at 6 days [1]: 22.7 µM
EC50 (HIV-1IIIB; [2]): 1.08 µM

GIKEWKRIVQRIKDFLRNLV-NH2 [GI-20W17]
CC50 at 6 days [1]: 23.6 µM
EC50 (HIV-1IIIB; [2]): 7.4 µM

GIKQFKRIVQRIKDFLRNLV-NH2 [GI-20Q16]
CC50 at 6 days [1]: 13.7 µM
EC50 (HIV-1IIIB; [2]): 0.91 µM

GIWDTIKSMGKVFAGKILQNL-NH2 [Brevinin-2-related, reference compound]
CC50 (CEM-SS cells): 7.42 µM

GIWSDLAEIIKKF [Peptide B6]
CC50 (CEM-SS cells; [5]): > 65.8 µM

GKPRPYSPRPTSHPRPIRV [Drosocin, reference compound]
CC50 (CEM-SS cells; [4]): > 45.5 µM
EC50 (HIV-1IIIB; [3]): > 45.5 µM

GLFDIIKKIAESW [Peptide B1]
CC50 (CEM-SS cells; [5]): 37 µM
EC50 (HIV-1IIIB; [6]): 11.7 µM

GLNTLKKVFQGLHEAIKLINNHVQ [Psuedin 1, reference compound] [listing 1 of 2 here]
EC50 (HIV-1IIIB; [3]): 35.7 µM

GLNTLKKVFQGLHEAIKLINNHVQ [Psuedin 1, reference compound] [listing 2 of 2 here]
CC50 (CEM-SS cells; [4]): > 36.8 µM

GLRRLLGRLLRRLGRLLLR [GLR-19]
CC50 (CEM-SS cells; [7]): 25.7 µM
EC50 (HIV-1IIIB; Table 3, CEM-SS cells): 4.4 µM

GLRSKIWLWVLLMIWQESNKFKKM [DRS S9, reference compound]
CC50 (CEM-SS cells; [7]): > 32.9 µM
EC50 (HIV-1IIIB; Table 3, CEM-SS cells): 31.6 µM

GLRSRIWLWVLLMIWQESNRFKRM [DRS S9r3]
CC50 (CEM-SS cells; [7]): > 32.1 µM
EC50 (HIV-1IIIB; Table 3, CEM-SS cells): 1.25 µM

GLWEKIDKFASII [Peptide B2]
CC50 (CEM-SS cells; [5]): > 65.8 µM
EC50 (HIV-1IIIB; [6]): > 65.8 µM
